# Data from US4221805A, “Method of inducing platelet antiaggregation activity” (priority 1978, dated 1980).
# How the values were obtained:
# platelet aggregation = experiment: In vivo platelet antiaggregation activity; set-up: species or system male rats, Wistar strain; conditions: rats, single oral dose 3 mg/kg
# Experimental: This experiment was carried out on male rats of the Wistar strain having a weight of 320±20 grams. Both the MRAP2 and the aspirin (used as a comparison drug) were dissolved in a physiological solution, and the solutions, adjusted to pH 7.4, were administered orally in doeses of 3 mg/kg to two groups of three rats each. […] The concentration of the solution was adjusted to contain 100 mg of MRAP2 per ml. Blood samples were drawn from each animal 72 and 120 hours after treatment, for checking the platelet aggregation. In calculating the activity, the previous method was used (the average of the three maximum amplitudes of the curves obtained with the untreated rats was given the control figure of 100%).
# [1] = system: human PRP (Platelet Rich Plasma), platelet aggregation induced by ADP; experiment: In vitro platelet antiaggregation activity (Born method, ADP-induced); assay type: cell-based; conditions: Platelet, ADP 10^-3 mM
# Experimental: The method described by Born (Nature, 194, 927, 1962) was followed for this test, based on the increase in the platelet aggregation induced by ADP. The experiment was conducted using a human PRP (Platelet Rich Plasma) pool from four healthy volunteers who had not taken any drugs for ten days. The PRP was adjusted to 280,000±20,000 and kept at ambient temperature for the entire duration of the test.
# 400 μl of PRP and 100 μl of MRAP2 dissolved in a physiological solution and adjusted to a pH of 7.4 were placed in plastic test tubes. Three doses of the drug in question (0.181, 0.904 and 1.818 mg/ml) were used.
# Three dilutions of aspirin were prepared under the same conditions for use as a comparison drug. Two minutes after contact between the drug and PRP, the test tube was inserted into the aggregometer cell (EEI, Model 169 with Corning Recorder Mod.840). After 60 seconds, ADP (10^-3 mM) was added and the aggregation was recorded. In calculating the antiaggregation activity, reference was made to the maximum amplitude of the aggregation curved obtained with ADP. Assuming this amplitude to be 100, the amplitudes of the curves obtained with the various doses of MRAP2 and aspirin were calculated as a percentage.
# stomach (gastric lesion) = experiment: Ulcerogenic activity in rats after a single administration; assay type: in vivo, male albino rats, Wistar strain; conditions: rat, in vivo, po
# Experimental: The ulcerogenic activity of MRAP2 was tested both after a single administration of the drug, and after prolonged administration.
# In these tests, a total of 70 male albino rats of Wistar strain were used, having a weight of 200±20 grams.
# The MRAP2 was administered diluted in tap water.
# 40 rats, fasted for 18 hours before the experiment, were divided into four batches of ten animals and treated orally as follows:
# 3rd group: MRAP2 (50 mg/kg)
# 4th group: MRAP2 (125 mg/kg).
# The animals were killed after six hours. The stomach was withdrawn and the gastric lesion index was evaluated in terms of an arbitrary scale of values lying between 0. and 7 based on previous models proposed by other authors.
# Furthermore, the treatment was randomised in order to eliminate any possible polarisation of the data.
# The points given for gastric ulcerative lesions were as follows:
# (1) hyperaemia or slight capillary obstruction; or slight loss of the epithelium; or some petechiae even with pale mucosa without hyperaemia;
# (2) diffuse capillary obstructions or numerous petechiae; or diffuse loss of the epithelium; of a few surface lesions;
# (3) strong submucosa haemorrhage; or many petechiae and small surface lesions; or much anaemic mucosa (yellowish colour); or up to three small ulcers;
# (4) general pattern as in the previous numbers, plus up to ten small ulcers; or long erosions; or up to three medium sized ulcers;
# (5) pattern as in number 4, with up to 15 small ulcers; or up to 6 large ulcers;
# (6) pattern as previously, with up to ten large ulcers, plus small ulcers;
# (7) pattern as previously, plus up to ten large ulcers and small ulcers; cases of perforated ulcers.
SMILES,% platelet antiaggregation activity on day 3 (platelet aggregation; day 3 (72 hours)) [%],"% platelet aggregation on day 3 (platelet aggregation; day 3 (72 hours), controls = 100) [%]",% platelet antiaggregation activity on day 5 (platelet aggregation; day 5 (120 hours)) [%],"% platelet aggregation on day 5 (platelet aggregation; day 5 (120 hours), controls = 100) [%]",inhibition of platelet aggregation at 181 µg/mL ([1]; drug 0.181 mg/ml) [%],"activity at 181 µg/mL ([1]; drug 0.181 mg/ml, serum + ADP = 100) [%]",inhibition of platelet aggregation at 904 µg/mL ([1]; drug 0.904 mg/ml) [%],"activity at 904 µg/mL ([1]; drug 0.904 mg/ml, serum + ADP = 100) [%]",inhibition of platelet aggregation at 1818 µg/mL ([1]; drug 1.818 mg/ml) [%],"activity at 1818 µg/mL ([1]; drug 1.818 mg/ml, serum + ADP = 100) [%]",incidence of ulcerative lesions (in words) (stomach (gastric lesion))
"CC(=O)Oc1ccccc1C(=O)O [aspirin, reference compound]",25,75,25,75,5,95,63,37,74,26,–
"CCCCC1C(=O)N(c2ccccc2)N(c2ccccc2)C1=O [phenylbutazone, reference compound]",–,–,–,–,–,–,–,–,–,–,very marked
